According to patent US20060154954A1, “Combinations and use of selected pharmaceutically active compounds” (ALTANA PHARMA AG, priority 2003, published 2006):

Tested on: gastric lesion
Experiment: Gastric lesions after pylorus ligation and oral acetylsalicylic acid in the rat (Shay rat, modified by Okabe)
Type: in vivo
Conditions: 4 hours after pylorus ligation and oral 100 mg/kg acetylsalicylic acid
[1] = 1.0 μmol/kg intraduodenally, read-out: Reduction of lesion index versus control in %

Row | Compound | inhibition in vivo at 1 µmol/kg [1] | further results
1 | COCCO[C@@H]1c2ccn3c(C)c(C)nc3c2N[C@H](c2ccccc2)[C@H]1OC(=O)c1ccccc1 [Example 8, (7R,8R,9R)-8-benzoyloxy-7-(2-methoxyethoxy)-2,3-dimethyl-9-phenyl-7,8,9,10-tetrahydroimidazo[1,2-h][1,7]naphthyridine] | 100% | –
2 | Cc1nc2c3c(ccn2c1C)[C@@](C)(O)[C@H](O)[C@@H](c1ccccc1)N3 [Example 12, (7R,8R,9R)-2,3,7-trimethyl-7,8-dihydroxy-9-phenyl-7,8,9,10-tetrahydroimidazo[1,2-h][1,7]naphthyridine] | 100% | –
3 | COCCO[C@@H]1c2ccn3cc(C)nc3c2N[C@H](c2ccccc2)[C@H]1O [Example 15, (7R,8R,9R)-8-hydroxy-2-methyl-7-(2-methoxyethoxy)-9-phenyl-7,8,9,10-tetrahydroimidazo[1,2-h][1,7]naphthyridine] | – | inhibition in vivo at 6 µmol/kg (6.0 μmol/kg intraduodenally, read-out: Reduction of lesion index versus control in %): 100%
4 | COCCO[C@@H]1c2ccn3c(C)c(C)nc3c2N[C@H](c2ccccc2)[C@H]1OC(=O)CN(C)C [Example 10, (7R,8R,9R)-7-(2-methoxyethoxy)-2,3-dimethyl-8-(N,N-dimethylaminomethylcarbonyloxy)-9-phenyl-7,8,9,10-tetrahydroimidazo[1,2-h][1,7]naphthyridine] | 100% | –
5 | COCCO[C@@H]1c2ccn3c(C)c(C)nc3c2N[C@H](c2ccccc2)[C@H]1OC(=O)OC [Example 9, (7R,8R,9R)-8-methoxycarbonyloxy-7-(2-methoxyethoxy)-2,3-dimethyl-9-phenyl-7,8,9,10-tetrahydroimidazo[1,2-h][1,7]naphthyridine] | 100% | –
6 | COCCO[C@@H]1c2ccn3c(Cl)c(C)nc3c2O[C@H](c2ccccc2)[C@@H]1O [Example 17, (7R,8R,9R)-3-chloro-8-hydroxy-7-(2-methoxyethoxy)-2-methyl-9-phenyl-7H-8,9-dihydro-pyrano[2,3-c]imidazo[1,2-a]pyridine] | – | Reduction of lesion index versus control in % (1.0 μmol/kg intraduodenally): 100%
7 | COCCO[C@@H]1c2ccn3c(C)c(C)nc3c2N[C@H](c2ccccc2)[C@H]1O [Example 6, (7R, 8R, 9R)-2,3-dimethyl-8-hydroxy-7-(2-methoxyethoxy)-9-phenyl-7,8,9,10-tetrahydroimidazo[1,2-h][1,7]naphthyridine] | 100% | –
8 | CO[C@H]1c2ccn3c(C)c(C)nc3c2N[C@H](c2ccccc2)[C@H]1O [Example 3, (7S, 8R, 9R)-2,3-dimethyl-8-hydroxy-7-methoxy-9-phenyl-7,8,9,10-tetrahydroimidazo[1,2-h][1,7]naphthyridine] | – | inhibition in vivo at 10 µmol/kg (10.0 μmol/kg intraduodenally, read-out: Reduction of lesion index versus control in %): 100%
9 | COCCO[C@@H]1c2ccn3c(C)c(C)nc3c2N[C@H](c2ccccc2)[C@H]1O [Example 1, (7R,8R,9R)-8-hydroxy-7-(2-methoxyethoxy)-2,3-dimethyl-9-phenyl-7,8,9,10-tetrahydro-imi-dazo[1,2-h][1,7]naphthyridine] | – | Reduction of lesion index versus control in % (3.0 μmol/kg intraduodenally): 100%
10 | Cc1nc2c3c(ccn2c1C)[C@@H](O)[C@@](C)(O)[C@@H](c1ccccc1)N3 [Example 11, (7R,8S,9R)-2,3,8-trimethyl-7,8-dihydroxy-9-phenyl-7,8,9,10-tetrahydroimidazo[1,2-h][1,7]naphthyridine] | 100% | –
11 | CCO[C@@H]1c2ccn3c(C)c(C)nc3c2N[C@H](c2ccccc2)[C@H]1O [Example 4, (7R, 8R, 9R)-2,3-dimethyl-7-ethoxy-8-hydroxy-9-phenyl-7,8,9,10-tetrahydroimidazo[1,2-h][1,7]naphthyridine] | 100% | –
12 | CCO[C@H]1c2ccn3c(C)c(C)nc3c2N[C@H](c2ccccc2)[C@H]1O [Example 5, (7S, 8R, 9R)-2,3-dimethyl-7-ethoxy-8-hydroxy-9-phenyl-7,8,9,10-tetrahydroimidazo[1,2-h][1,7]naphthyridine] | 100% | –
13 | COCCO[C@@H]1c2ccn3c(Cl)c(C)nc3c2N[C@H](c2ccccc2)[C@H]1O [Example 16, (7R,8R,9R)-3-chloro-8-hydroxy-7-(2-methoxyethoxy)-2-methyl-9-phenyl-7.8.9.10-tetrahydroimidazo[1.2-h][1.7]naphthyridine] | – | Reduction of lesion index versus control in % (6.0 μmol/kg intraduodenally): 100%
14 | COCCO[C@@H]1c2ccn3c(C)c(C)nc3c2N[C@H](c2ccccc2)[C@H]1OC(C)=O [Example 7, (7R,8R,9R)-8-acetoxy-7-(2-methoxyethoxy)-2,3-dimethyl-9-phenyl-7,8,9,10-tetrahydroimidazo[1,2-h][1,7]naphthyridine] | 100% | –
15 | CO[C@@H]1c2ccn3c(C)c(C)nc3c2N[C@H](c2ccccc2)[C@H]1O [Example 2, (7R, 8R, 9R)-2,3-dimethyl-8-hydroxy-7-methoxy-9-phenyl-7,8,9,10-tetrahydroimidazo[1,2-h][1,7]naphthyridine] | 100% | –
16 | CCO[C@@H]1c2ccn3c(C)c(C)nc3c2O[C@H](c2ccccc2)[C@@H]1O [Example 14, (7R,8R,9R)-2,3-dimethyl-8-hydroxy-7-ethoxy-9-phenyl-7H-8,9-dihydropyrano[2,3-c]imidazo[1,2-a]pyridine] | – | Reduction of lesion index versus control in % (1.0 μmol/kg intraduodenally): 100%
17 | COCCO[C@@H]1c2ccn3c(C)c(C)nc3c2O[C@H](c2ccccc2)[C@@H]1O [Example 13, (7R,8R,9R)-2,3-dimethyl-8-hydroxy-7-(2-methoxyethoxy)-9-phenyl-7H-8,9-dihydropyrano[2,3-c]imidazo[1,2-a]pyridine] | – | Reduction of lesion index versus control in % (1.0 μmol/kg intraduodenally): 100%
